Reference: US20200407674A1, “CELL HOLDING AND TRANSPORTING DEVICE” (Stem Cell & Device Laboratory, Inc., priority 2018, published 2020)

System: human iPS cell-derived cardiac myocytes
Experiment: Extracellular potential of cultured cardiac myocytes measured with MEA probe using device 1700
Assay type: cell-based
Details: dofetilide 0.0003, 0.001, 0.003 μM vs DMSO alone; MEA probe (MED64 System); FIG. 23
Excerpt: The method of using the device for retaining and transporting cells 1700 when measuring cell characteristics is described here by taking an example of measuring an extracellular potential generated by cell activity of cardiac myocytes that is formed in the device for retaining and transporting cells 1700. An MEA (Multi-Electrode Array) probe P is used for measuring the extracellular potential. The MEA probe P is a device for measuring the extracellular potential generated by cellular activity. […] The substrate PB has a thin plate shape, and the molten wall PW is formed on the substrate PB. The melted wall PW has a cylindrical shape with one end open, and stores a medium inside, forming a cell arrangement space PS for placing the cells to be tested. […] The extracellular potential of the cultured cardiac myocytes was measured using the device 1700 that is formed using polycarbonate and that has a base 1701 (diameter: 6 mm, thickness: 0.7 mm), a through hole 1703 (diameter: 1.5 mm), a cell culture holding part 105 made of an oriented fiber sheet with a pitch of 10 μm, a manipulating part 1707, and the air vent section 1711, and the MEA probe P (MED64 System, Alpha MED Scientific Inc.). […] The drug response of the cultured cardiac myocytes can be measured by means of the extracellular potential by changing the conditions of the drug to be administered to the cultured cardiac myocytes. […]

CN(CCOc1ccc(NS(C)(=O)=O)cc1)CCc1ccc(NS(C)(=O)=O)cc1 [dofetilide, Dofetilide]
time required from the first peak potential to the second peak potential: prolonged depending on the concentration
